According to patent US10392368B2, “Pyrazolo and triazolo bicyclic compounds as JAK kinase inhibitors” (THERAVANCE BIOPHARMA R&D IP, LLC, priority 2017, dated 2019):

Experiments:
JAK3 = target: T1, JAK3 (Homo sapiens, UniProt P52333); test: Biochemical JAK3 kinase assay (LanthaScreen); design: GST; purchased Life Technologies; details: for Ki: read-out: JAK 3 (pKi) (converted)
T1 sequence (P52333 1-1124): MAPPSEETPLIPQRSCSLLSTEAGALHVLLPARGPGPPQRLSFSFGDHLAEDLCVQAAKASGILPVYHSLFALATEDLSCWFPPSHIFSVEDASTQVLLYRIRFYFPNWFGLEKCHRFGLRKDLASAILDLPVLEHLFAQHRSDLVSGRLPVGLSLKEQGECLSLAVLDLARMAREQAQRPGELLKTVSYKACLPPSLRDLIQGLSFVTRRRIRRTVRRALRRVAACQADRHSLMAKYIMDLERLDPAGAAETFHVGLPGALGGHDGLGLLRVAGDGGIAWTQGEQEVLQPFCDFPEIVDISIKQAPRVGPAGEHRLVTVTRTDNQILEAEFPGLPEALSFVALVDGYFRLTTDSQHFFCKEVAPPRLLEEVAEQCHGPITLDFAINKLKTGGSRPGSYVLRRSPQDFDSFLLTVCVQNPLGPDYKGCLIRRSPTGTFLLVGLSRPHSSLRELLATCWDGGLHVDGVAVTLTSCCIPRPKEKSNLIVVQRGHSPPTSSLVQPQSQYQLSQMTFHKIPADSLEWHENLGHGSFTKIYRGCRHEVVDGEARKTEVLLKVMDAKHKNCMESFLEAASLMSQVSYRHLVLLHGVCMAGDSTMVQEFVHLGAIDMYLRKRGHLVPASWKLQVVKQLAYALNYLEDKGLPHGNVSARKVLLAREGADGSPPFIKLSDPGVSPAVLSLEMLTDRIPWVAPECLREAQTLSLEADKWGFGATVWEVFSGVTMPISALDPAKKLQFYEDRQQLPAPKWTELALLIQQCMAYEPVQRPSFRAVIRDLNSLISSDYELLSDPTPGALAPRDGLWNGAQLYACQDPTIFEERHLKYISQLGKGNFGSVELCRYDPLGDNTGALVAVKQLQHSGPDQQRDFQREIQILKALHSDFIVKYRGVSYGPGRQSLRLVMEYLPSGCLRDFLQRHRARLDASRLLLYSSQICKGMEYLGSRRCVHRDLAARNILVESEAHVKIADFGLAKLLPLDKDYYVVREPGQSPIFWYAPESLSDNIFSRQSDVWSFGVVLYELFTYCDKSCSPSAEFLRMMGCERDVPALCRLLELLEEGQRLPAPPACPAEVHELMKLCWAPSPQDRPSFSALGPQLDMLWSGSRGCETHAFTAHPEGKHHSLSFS
Procedure, shortened: (§1)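 GST-JAK + GFP-STAT1 peptide + cpd, 1 h preinc RT; ATP start, 1% DMSO, 1 h RT; stop 10 mM EDTA + 2 nM Tb-anti-pSTAT1; 1 h; TR-FRET 520/495. % inhib vs DMSO/background → IC50 (4-PL) → pKi (Cheng-Prusoff).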

Tyk2 = target: T2, Tyk2 (Homo sapiens, UniProt P29597); test: Biochemical Tyk2 kinase assay (LanthaScreen); details: for Ki: read-out: Tyk 2 (pKi) (converted)
T2 construct: GST; purchased Life Technologies
T2 sequence (P29597 whole entry): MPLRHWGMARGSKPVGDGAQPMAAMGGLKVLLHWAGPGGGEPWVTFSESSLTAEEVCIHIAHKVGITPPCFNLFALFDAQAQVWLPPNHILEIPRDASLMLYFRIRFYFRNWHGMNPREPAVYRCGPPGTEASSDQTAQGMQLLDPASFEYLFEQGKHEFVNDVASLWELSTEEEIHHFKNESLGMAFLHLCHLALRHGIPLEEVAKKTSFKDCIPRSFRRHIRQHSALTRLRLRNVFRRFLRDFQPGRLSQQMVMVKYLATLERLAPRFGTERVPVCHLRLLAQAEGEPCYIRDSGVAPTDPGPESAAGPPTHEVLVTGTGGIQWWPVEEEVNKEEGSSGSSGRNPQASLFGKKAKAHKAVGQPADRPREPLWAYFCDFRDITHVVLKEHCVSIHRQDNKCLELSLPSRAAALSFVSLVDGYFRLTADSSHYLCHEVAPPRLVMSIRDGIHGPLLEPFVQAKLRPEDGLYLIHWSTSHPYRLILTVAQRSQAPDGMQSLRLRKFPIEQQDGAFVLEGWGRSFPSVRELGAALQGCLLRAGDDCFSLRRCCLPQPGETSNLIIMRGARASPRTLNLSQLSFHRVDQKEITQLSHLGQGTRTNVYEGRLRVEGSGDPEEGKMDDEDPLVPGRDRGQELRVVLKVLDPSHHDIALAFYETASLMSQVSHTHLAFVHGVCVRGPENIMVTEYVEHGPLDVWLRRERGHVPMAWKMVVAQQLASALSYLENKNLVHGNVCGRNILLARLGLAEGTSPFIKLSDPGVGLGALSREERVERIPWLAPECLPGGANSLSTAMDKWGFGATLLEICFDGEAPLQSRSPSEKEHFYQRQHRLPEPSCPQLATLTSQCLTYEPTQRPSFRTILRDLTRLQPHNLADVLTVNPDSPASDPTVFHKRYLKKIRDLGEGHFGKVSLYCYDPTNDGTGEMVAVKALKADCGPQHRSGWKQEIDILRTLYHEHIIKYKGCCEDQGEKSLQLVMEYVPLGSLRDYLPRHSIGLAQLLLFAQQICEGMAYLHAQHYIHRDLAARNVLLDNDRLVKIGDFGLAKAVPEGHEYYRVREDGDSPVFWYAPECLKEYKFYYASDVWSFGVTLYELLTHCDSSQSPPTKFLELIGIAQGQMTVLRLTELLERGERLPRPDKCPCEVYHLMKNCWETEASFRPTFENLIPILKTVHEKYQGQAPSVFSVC
Procedure, shortened: as §1

JAK1 = target: T3, JAK1 (Homo sapiens, UniProt P23458); test: Biochemical JAK1 kinase assay (LanthaScreen); details: for Ki: read-out: JAK 1 (pKi) (converted)
T3 construct: GST; purchased Life Technologies
T3 sequence (P23458 whole entry): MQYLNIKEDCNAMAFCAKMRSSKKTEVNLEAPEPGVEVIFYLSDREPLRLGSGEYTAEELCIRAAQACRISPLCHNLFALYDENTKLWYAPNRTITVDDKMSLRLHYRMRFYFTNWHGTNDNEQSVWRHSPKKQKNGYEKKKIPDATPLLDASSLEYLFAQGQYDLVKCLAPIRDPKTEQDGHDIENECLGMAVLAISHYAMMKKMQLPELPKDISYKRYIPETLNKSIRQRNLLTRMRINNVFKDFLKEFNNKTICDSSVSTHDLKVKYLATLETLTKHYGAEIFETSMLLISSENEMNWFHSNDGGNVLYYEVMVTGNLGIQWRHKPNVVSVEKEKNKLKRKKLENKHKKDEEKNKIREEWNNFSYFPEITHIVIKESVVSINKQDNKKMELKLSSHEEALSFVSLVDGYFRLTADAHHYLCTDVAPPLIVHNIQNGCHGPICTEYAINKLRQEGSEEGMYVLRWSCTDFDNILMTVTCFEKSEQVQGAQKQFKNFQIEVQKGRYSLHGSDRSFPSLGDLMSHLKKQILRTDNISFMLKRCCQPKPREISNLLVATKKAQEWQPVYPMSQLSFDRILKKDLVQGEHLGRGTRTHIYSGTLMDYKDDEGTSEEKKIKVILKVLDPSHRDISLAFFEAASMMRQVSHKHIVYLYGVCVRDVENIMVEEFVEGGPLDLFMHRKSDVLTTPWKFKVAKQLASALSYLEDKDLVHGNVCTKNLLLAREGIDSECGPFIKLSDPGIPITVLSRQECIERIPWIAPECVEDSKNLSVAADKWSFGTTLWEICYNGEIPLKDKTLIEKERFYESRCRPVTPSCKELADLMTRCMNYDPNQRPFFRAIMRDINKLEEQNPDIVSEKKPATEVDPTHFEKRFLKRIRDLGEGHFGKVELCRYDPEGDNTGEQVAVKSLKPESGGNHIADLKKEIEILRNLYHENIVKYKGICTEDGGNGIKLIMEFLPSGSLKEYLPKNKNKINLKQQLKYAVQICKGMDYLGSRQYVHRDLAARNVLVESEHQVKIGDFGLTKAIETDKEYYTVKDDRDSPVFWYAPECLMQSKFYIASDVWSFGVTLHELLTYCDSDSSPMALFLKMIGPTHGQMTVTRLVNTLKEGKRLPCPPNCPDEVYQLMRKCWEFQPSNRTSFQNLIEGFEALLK
Procedure, shortened: as §1

JAK2 = target: T4, JAK2 (Homo sapiens, UniProt O60674); test: Biochemical JAK2 kinase assay (LanthaScreen); details: for Ki: read-out: JAK 2 (pKi) (converted)
T4 construct: GST; purchased Life Technologies
T4 sequence (O60674 whole entry): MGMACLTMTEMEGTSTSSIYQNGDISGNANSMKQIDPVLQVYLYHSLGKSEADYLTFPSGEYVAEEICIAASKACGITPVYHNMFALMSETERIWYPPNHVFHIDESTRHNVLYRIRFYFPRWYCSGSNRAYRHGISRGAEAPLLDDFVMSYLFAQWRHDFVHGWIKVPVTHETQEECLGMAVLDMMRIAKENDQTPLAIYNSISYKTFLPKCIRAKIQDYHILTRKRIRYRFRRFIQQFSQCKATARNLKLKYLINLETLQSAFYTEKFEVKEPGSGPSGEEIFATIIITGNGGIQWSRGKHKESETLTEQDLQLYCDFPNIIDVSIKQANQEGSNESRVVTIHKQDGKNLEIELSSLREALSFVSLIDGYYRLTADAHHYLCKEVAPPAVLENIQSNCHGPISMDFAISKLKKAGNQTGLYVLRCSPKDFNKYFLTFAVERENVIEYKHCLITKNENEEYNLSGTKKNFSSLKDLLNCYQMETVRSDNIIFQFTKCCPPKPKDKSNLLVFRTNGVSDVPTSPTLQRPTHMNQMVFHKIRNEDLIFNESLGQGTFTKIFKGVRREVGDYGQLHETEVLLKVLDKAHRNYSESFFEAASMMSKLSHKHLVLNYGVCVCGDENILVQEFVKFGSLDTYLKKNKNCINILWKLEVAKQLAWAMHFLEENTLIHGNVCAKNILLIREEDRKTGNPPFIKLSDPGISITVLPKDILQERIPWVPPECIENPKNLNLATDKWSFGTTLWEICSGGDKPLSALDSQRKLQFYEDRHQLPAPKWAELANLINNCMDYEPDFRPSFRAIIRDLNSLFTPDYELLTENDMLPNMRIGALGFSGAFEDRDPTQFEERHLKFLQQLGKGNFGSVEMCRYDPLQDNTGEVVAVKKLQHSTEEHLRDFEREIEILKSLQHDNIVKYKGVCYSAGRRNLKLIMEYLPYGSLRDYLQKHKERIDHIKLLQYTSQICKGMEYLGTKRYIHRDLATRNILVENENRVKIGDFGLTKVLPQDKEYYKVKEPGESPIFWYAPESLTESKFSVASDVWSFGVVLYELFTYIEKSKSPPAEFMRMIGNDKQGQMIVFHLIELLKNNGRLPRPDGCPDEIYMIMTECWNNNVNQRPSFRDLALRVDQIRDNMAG
Procedure, shortened: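 pKi values derive from pIC50 via Cheng-Prusoff, with IC50 from a 4-parameter fit of percent-inhibition TR-FRET data using Tb-anti-pSTAT1 (pTyr701) detection. Compound, GST-JAK2 and GFP-STAT1 substrate were pre-incubated 1 h, then ATP started a 1 h ambient reaction (HEPES pH 7.5, 10 mM MgCl2, 1% DMSO).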

[1] = system: IL-2 stimulated pSTAT5 in Tall-1 T cells; test: Cellular JAK3 potency assay: inhibition of IL-2 stimulated pSTAT5 in Tall-1 T cells; format: cell-based, human; details: for Tall-1 (pIC50): IL-2 stimulated pSTAT5, Tall-1 T cells; for IC50: Homo sapiens, TALL-1, IL-2 stimulated pSTAT5 in Tall-1 T cells, read-out: Tall-1 (pIC50) (converted)
Procedure, shortened: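 Inhibition of IL-2-induced pSTAT5 was quantified by AlphaLisa in Tall-1 cell lysates. Compound exposure lasted 1 h before 30 min stimulation with 300 ng/ml IL-2 final.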

[2] = selectivity JAK3 over JAK1, difference of pKi
[3] = selectivity: difference of pKi JAK3 and pKi JAK1

| Compound | JAK 3 (pKi) (JAK3) | JAK3 (pKi)-JAK1 (pKi) (JAK3; [2]) | Tyk 2 (pKi) (Tyk2) | JAK 1 (pKi) (JAK1) | JAK 2 (pKi) (JAK2) | Tall-1 (pIC50) [1] | Ki (JAK3) [nM] | JAK3 (pKi)-JAK1 (pKi) (JAK3; [3]) | Ki (Tyk2) [nM] | Ki (JAK1) [nM] | Ki (JAK2) [nM] | IC50 [1] [nM] |
| --- | --- | --- | --- | --- | --- | --- | --- | --- | --- | --- | --- | --- |
| C=CC(=O)N1CCO[C@@H](C(=O)Nc2cc(-c3ccc(O)c(Cl)c3)nc3[nH]ncc23)C1 [Compound 13-22] | B (a pKi value between 9 and 10 (Ki between 1 nM and 0.1 nM)) | A (a value of 3 or above) | E (a pKi value of 7 or below (Ki of 100 nM or above)) | E (a pKi value of 7 or below (Ki of 100 nM or above)) | E (a pKi value of 7 or below (Ki of 100 nM or above)) | B (a pIC50 value between 6.7 (included) and 7.5 (IC50 between 200 nM and 32 nM)) |  |  |  |  |  |  |
| C=CC(=O)N1CC[C@H](S(=O)(=O)c2cc(-c3ccc(O)cc3)cc3[nH]ncc23)C1 [Compound 13] |  |  |  |  |  |  | < 0.1 | A (a value of 3 or above) | > 100 | > 100 | > 100 | 31.6 to 200 |
| C=CC(=O)N1CCC(Cc2cc(-c3ccc(O)cc3)cc3[nH]ncc23)CC1 [Compound 14, 1-(4-((6-(4-hydroxyphenyl)-1H-indazol-4-yl)methyl)piperidin-1-yl)prop-2-en-1-one] |  |  |  |  |  |  | 0.1 to 1 | A (a value of 3 or above) | > 100 | > 100 | > 100 | 31.6 to 200 |
| C=CC(=O)N1CCC(COc2cc(-c3ccc(O)c(Cl)c3)cc3[nH]ncc23)CC1 [Compound 14-1] | B (a pKi value between 9 and 10 (Ki between 1 nM and 0.1 nM)) | A (a value of 3 or above) | E (a pKi value of 7 or below (Ki of 100 nM or above)) | E (a pKi value of 7 or below (Ki of 100 nM or above)) | E (a pKi value of 7 or below (Ki of 100 nM or above)) | A (a pIC50 value≥7.5 (IC50≤32 nM)) |  |  |  |  |  |  |
| C=CC(=O)N1CCC(COc2cc(-c3ccc(O)cc3)nc3[nH]ncc23)CC1 [Compound 14-2] | A (a pKi value≥10 (Ki≤0.1 nM)) | A (a value of 3 or above) | E (a pKi value of 7 or below (Ki of 100 nM or above)) | E (a pKi value of 7 or below (Ki of 100 nM or above)) | E (a pKi value of 7 or below (Ki of 100 nM or above)) | B (a pIC50 value between 6.7 (included) and 7.5 (IC50 between 200 nM and 32 nM)) |  |  |  |  |  |  |
| C=CC(=O)N1CCC(COc2cc(-c3ccc(O)c(F)c3)nc3[nH]ncc23)CC1 [Compound 14-9] | B (a pKi value between 9 and 10 (Ki between 1 nM and 0.1 nM)) | A (a value of 3 or above) | E (a pKi value of 7 or below (Ki of 100 nM or above)) | E (a pKi value of 7 or below (Ki of 100 nM or above)) | E (a pKi value of 7 or below (Ki of 100 nM or above)) | B (a pIC50 value between 6.7 (included) and 7.5 (IC50 between 200 nM and 32 nM)) |  |  |  |  |  |  |
| C=CC(=O)N1CCC(COc2nc(-c3ccc(O)cc3)nc3[nH]ncc23)CC1 [Compound 14-12] | B (a pKi value between 9 and 10 (Ki between 1 nM and 0.1 nM)) | A (a value of 3 or above) | E (a pKi value of 7 or below (Ki of 100 nM or above)) | E (a pKi value of 7 or below (Ki of 100 nM or above)) | E (a pKi value of 7 or below (Ki of 100 nM or above)) | C (a pIC50 value between 6 and 6.7 (IC50 between 1 μM and 200 nM)) |  |  |  |  |  |  |
